# Assay results reported in US12516049B2, “Sulfonylurea ring substituted monocyclic β-lactam antibiotics” (priority 2019, dated 2026).
# Columns and labels:
# [1] = test system: Escherichia coli ATCC 25922; test: MIC, micro-liquid dilution (CLSI); type: cell-based; conditions: ATCC25922, E. coli ATCC 25922, 20-24 h, 37° C.
# Procedure: (§1) Three strains of Klebsiella pneumonia, ATCC BAA-205 (TEM-1/SHV-1/SHV-12), ATCC BAA-1705 (KPC-2), ATCC BAA-2470 (NDM-1), Enterobacter cloacae ATCC BAA-1143 (AmpC), two strains of Escherichia coli ATCC BAA-2523 (OXA-48), ATCC 25922 were used to determine the minimum inhibitory concentration (MIC) of each of the compounds by micro-liquid dilution method according to the Institute of Clinical and Laboratory Standard (CLSI) requirements. […]. The plate was placed upside down at 37° C. and the MIC value was read after 20-24 h of incubation, and the lowest drug concentration that inhibited the growth of bacteria was set as MIC. Colony-Forming Units (CFU) refer to the total number of bacterial colonies per unit volume.
# [2] = test system: Escherichia coli ATCC BAA-2523 (OXA-48); test: MIC, micro-liquid dilution (CLSI); type: cell-based; conditions: ATCCBAA2523, E. coli ATCC BAA-2523, Class D (OXA-48), 20-24 h, 37° C., read-out: MIC
# Procedure: as §1
# [3] = test system: Klebsiella pneumonia ATCC BAA-205 (TEM-1/SHV-1/SHV-12); test: MIC, micro-liquid dilution (CLSI); type: cell-based; conditions: Klebsiella pneumoniae, ATCCBAA205; K. pneumonia ATCC BAA-205, Class A (TEM-1/SHV-1/SHV-12); 20-24 h, 37° C.
# Procedure: as §1
# [4] = test system: Klebsiella pneumonia ATCC BAA-2470 (NDM-1); test: MIC, micro-liquid dilution (CLSI); type: cell-based; conditions: Klebsiella pneumoniae, ATCCBAA2470; K. pneumonia ATCC BAA-2470, Class B (NDM-1); 20-24 h, 37° C.
# Procedure: as §1
# [5] = test system: Klebsiella pneumonia ATCC BAA-1705 (KPC-2); test: MIC, micro-liquid dilution (CLSI); type: cell-based; conditions: Klebsiella pneumoniae, ATCCBAA1705; K. pneumonia ATCC BAA-1705, Class A (KPC-2); 20-24 h, 37° C.
# Procedure: as §1
# [6] = test system: Enterobacter cloacae ATCC BAA-1143 (AmpC); test: MIC, micro-liquid dilution (CLSI); type: cell-based; conditions: ATCCBAA1143, E. cloacae ATCC BAA-1143, Class C (AmpC), 20-24 h, 37° C.
# Procedure: as §1
# E. coli ATCC-25922 = test: Mouse thigh muscle model, E. coli ATCC-25922; type: in vivo; conditions: immunosuppressed female CD-1 mice; E. coli ATCC-25922 1.36E+06 CFU/mouse; 100 mg/kg subcutaneously at 2, 4, 6, 8 h after infection; end point 10 h
# Procedure: 9 female CD-1 mice were divided into 3 cages, 3 mice per cage, and were injected intraperitoneally with immunosuppressant cyclophosphamide (150 mg/kg). 24 hours later, 3 cages of mice were injected intraperitoneally again with immunosuppressant cyclophosphamide (100 mg/kg). The strain E. coli ATCC-25922 was recovered on an MHA plate. The recovered colonies were picked and dissolved in saline to prepare E. coli ATCC-25922 bacterial solution with a concentration of 1.36E+07 CFU/mL for use in mouse thigh muscle infection. The amount of bacterial solution injected into the thigh muscle of the experimental mice was 100 μL/mouse, that is, the inoculation amount was 1.36E+06 CFU/mouse. 2 h after infection, the thigh muscle tissue of the mice in control group was taken and placed in 10 mL saline, homogenized, and dotted on a plate with gradient dilution. The specific administration of mice was as follows: (1) 2 h after infection: At the end point of 2 h infection, the thigh muscle tissue of the mice in the first cage was taken and placed in 10 mL saline, homogenized, and dotted on a plate with gradient dilution, two duplications for each mouse. The amount of bacteria loaded in the thigh muscle tissue of the mouse was counted. […] The amount of bacteria loaded in the thigh muscle tissue of the mouse was counted, and the experimental results were sorted and shown in Table 4.
# [7] = test system: clinically isolated carbapenem-resistant enterobacteriaceae; type: cell-based; conditions: single drug; panel of 26 strains of Table 2
# Procedure: (§2) The minimum inhibitory concentration (MIC) of the compound and combination with β-lactamase (MBLs) inhibitors against clinically isolated carbapenem-resistant enterobacteriaceae was determined by the two-fold agar dilution method to determine the activity of the compound to be tested against strains producing MBLs. […] The mother liquor was diluted to the concentration to be tested by double dilution method, an inoculum liquid was prepared by direct bacterial suspension method, 1 mL of the prepared bacteria solution was withdrawn and putted into the inoculation tube, and a positioning needle and an inoculation needle were installed. A bacterial multi-point inoculator was started for inoculation. After the bacterial solution was absorbed by the agar, the plate was placed upside down in an incubator at 37° C. for 16-20 hours, and the results were observed. The average of three tests was taken.
# K.p HX30 = test: MIC, two-fold agar dilution, clinical isolate; type: cell-based; conditions: K.p HX30; single drug; average of three tests; read-out: MIC
# Procedure: as §2
# E.coli 115101 = test: MIC, two-fold agar dilution, clinical isolate; type: cell-based; conditions: Escherichia coli; E.coli 115101; single drug; average of three tests; read-out: MIC
# Procedure: as §2
# E.coli 115105 = test: MIC, two-fold agar dilution, clinical isolate; type: cell-based; conditions: Escherichia coli, single drug, average of three tests
# Procedure: as §2
# K.p 090339 = test: MIC, two-fold agar dilution, clinical isolate; type: cell-based; conditions: K.p 090339; single drug; average of three tests; read-out: MIC
# Procedure: (§3) The minimum inhibitory concentration (MIC) of the compound and combination with β-lactamase (MBLs) inhibitors against clinically isolated carbapenem-resistant enterobacteriaceae was determined by the two-fold agar dilution method to determine the activity of the compound to be tested against strains producing MBLs. Antibiotics and enzyme inhibitors were weighed separately and dissolved in sterile ultrapure water or dimethyl sulfoxide to prepare mother liquor, MHA medium was prepared, pH was adjusted to 7.2-7.4, and it was sterilized at 121° C. for 15 minutes and placed in a 55° C. water bath for heat preservation. The mother liquor was diluted to the concentration to be tested by double dilution method, an inoculum liquid was prepared by direct bacterial suspension method, 1 mL of the prepared bacteria solution was withdrawn and putted into the inoculation tube, and a positioning needle and an inoculation needle were installed. A bacterial multi-point inoculator was started for inoculation. After the bacterial solution was absorbed by the agar, the plate was placed upside down in an incubator at 37° C. for 16-20 hours, and the results were observed. The average of three tests was taken.
# E.coli 020031 = test: MIC, two-fold agar dilution, clinical isolate; type: cell-based; conditions: Escherichia coli, single drug, average of three tests
# Procedure: as §3
# E.coli CRE21 = test: MIC, two-fold agar dilution, clinical isolate; type: cell-based; conditions: Escherichia coli; E.coli CRE21; single drug; average of three tests; read-out: MIC
# Procedure: as §3
# K.p C904 = test: MIC, two-fold agar dilution, clinical isolate; type: cell-based; conditions: K.p C904; single drug; average of three tests; read-out: MIC
# Procedure: as §3
# E.coli 020028 = test: MIC, two-fold agar dilution, clinical isolate; type: cell-based; conditions: Escherichia coli, single drug, average of three tests
# Procedure: as §3
# E.coli BAA-2452 = test: MIC, two-fold agar dilution, clinical isolate; type: cell-based; conditions: Escherichia coli, BAA2452; E.coli BAA-2452; single drug; average of three tests; read-out: MIC
# Procedure: as §3
# K.p HX37 = test: MIC, two-fold agar dilution, clinical isolate; type: cell-based; conditions: K.p HX37; single drug; average of three tests; read-out: MIC
# Procedure: as §3
# K.p 6777 = test: MIC, two-fold agar dilution, clinical isolate; type: cell-based; conditions: K.p 6777; single drug; average of three tests; read-out: MIC
# Procedure: as §3
# K.p 11544 = test: MIC, two-fold agar dilution, clinical isolate; type: cell-based; conditions: K.p 11544; single drug; average of three tests; read-out: MIC
# Procedure: as §3
# E.coli CRE28 = test: MIC, two-fold agar dilution, clinical isolate; type: cell-based; conditions: Escherichia coli; E.coli CRE28; single drug; average of three tests; read-out: MIC
# Procedure: as §3
# E.coli CRE23 = test: MIC, two-fold agar dilution, clinical isolate; type: cell-based; conditions: Escherichia coli; E.coli CRE23; single drug; average of three tests; read-out: MIC
# Procedure: as §3
# E.coli 020033 = test: MIC, two-fold agar dilution, clinical isolate; type: cell-based; conditions: Escherichia coli, single drug, average of three tests
# Procedure: as §3
# K.p BAA-2470 = test: MIC, two-fold agar dilution, clinical isolate; type: cell-based; conditions: K.p BAA-2470; single drug; average of three tests; read-out: MIC
# Procedure: as §3
# E.coli CRE18 = test: MIC, two-fold agar dilution, clinical isolate; type: cell-based; conditions: Escherichia coli; E.coli CRE18; single drug; average of three tests; read-out: MIC
# Procedure: as §3
# K.p 13249 = test: MIC, two-fold agar dilution, clinical isolate; type: cell-based; conditions: K.p 13249; single drug; average of three tests; read-out: MIC
# Procedure: as §3
# K.p 115004 = test: MIC, two-fold agar dilution, clinical isolate; type: cell-based; conditions: K.p 115004; single drug; average of three tests; read-out: MIC
# Procedure: as §3
# E.coli C1569 = test: MIC, two-fold agar dilution, clinical isolate; type: cell-based; conditions: Escherichia coli, single drug, average of three tests
# Procedure: as §3
# K.p HX77 = test: MIC, two-fold agar dilution, clinical isolate; type: cell-based; conditions: single drug, average of three tests
# Procedure: as §3
# K.p CRE12 = test: MIC, two-fold agar dilution, clinical isolate; type: cell-based; conditions: single drug, average of three tests
# Procedure: as §3
# K.p CRE11 = test: MIC, two-fold agar dilution, clinical isolate; type: cell-based; conditions: K.p CRE11; single drug; average of three tests; read-out: MIC
# Procedure: as §3
# K.p CRE16 = test: MIC, two-fold agar dilution, clinical isolate; type: cell-based; conditions: single drug, average of three tests
# Procedure: as §3
# [8] = test system: Morganella morganii C1274; test: MIC, two-fold agar dilution, clinical isolate; type: cell-based; conditions: Morganella morganii C1274; single drug; average of three tests; read-out: MIC
# Procedure: as §3
# E.coli 115103 = test: MIC, two-fold agar dilution, clinical isolate; type: cell-based; conditions: Escherichia coli; E.coli 115103; single drug; average of three tests; read-out: MIC
# Procedure: as §3
smiles,measurement,setting,value
Nc1nc(/C(=N/OC2(C(=O)O)CC2)C(=O)N[C@@H]2C(=O)N(S(=O)(=O)O)[C@@H]2CN2CCNS2(=O)=O)cs1 [Compound 1],MIC,[1],1 µg/mL
same,MIC,[2],0.5 µg/mL
same,MIC,[3],0.5 µg/mL
same,MIC,[4],0.5 µg/mL
same,MIC,[5],0.5 µg/mL
same,MIC,[6],1 µg/mL
same,Average CFU of the mouse (amount of bacteria loaded in thigh muscle tissue),E. coli ATCC-25922,2.25E+05 CFU
Nc1nc(/C(=N/OC2(C(=O)O)CC2)C(=O)N[C@@H]2C(=O)N(S(=O)(=O)O)[C@@H]2CN2CCOC2=O)cs1 [LYS 228],MIC50,[7],0.5 µg/mL
same,MIC90,[7],4 µg/mL
same,MIC,K.p HX30,2 µg/mL
same,MIC,E.coli 115101,4 µg/mL
same,MIC,E.coli 115105,4 µg/mL
same,MIC,K.p 090339,0.25 µg/mL
same,MIC,E.coli 020031,4 µg/mL
same,MIC,E.coli CRE21,4 µg/mL
same,MIC,K.p C904,0.125 µg/mL
same,MIC,E.coli 020028,0.125 µg/mL
same,MIC,E.coli BAA-2452,0.5 µg/mL
same,MIC,K.p HX37,0.5 µg/mL
same,MIC,K.p 6777,1 µg/mL
same,MIC,K.p 11544,0.125 µg/mL
same,MIC,E.coli CRE28,4 µg/mL
same,MIC,E.coli CRE23,2 µg/mL
same,MIC,E.coli 020033,8 µg/mL
same,MIC,K.p BAA-2470,0.25 µg/mL
same,MIC,E.coli CRE18,4 µg/mL
same,MIC,K.p 13249,0.125 µg/mL
same,MIC,K.p 115004,0.25 µg/mL
same,MIC,E.coli C1569,4 µg/mL
same,MIC,K.p HX77,0.03 µg/mL
same,MIC,K.p CRE12,0.125 µg/mL
same,MIC,K.p CRE11,0.125 µg/mL
same,MIC,K.p CRE16,0.06 µg/mL
same,MIC,[8],0.25 µg/mL
same,MIC,E.coli 115103,8 µg/mL
